Series [1] is described as follows: Daphnia magna toxicity assay. Format: in vivo. The note with it: Daphnia magna, in vivo; 48 h. As for the experimental part: (§1) Young organisms of Daphnia magna were selected according to their size from a parthenogenetic culture maintained in an artificial medium for 24 h before the bioassay. The determination was conducted in tissue culture plates with 12 wells (Greiner Bio-One, Monroe, NC, USA), with 10 organisms in each well, and a final volume of 3 mL per sample [65, 66]. As a negative control, DMSO was used at a concentration of 1%. All compounds were tested at six different concentration levels, ranging from 12.5 to 500 μg/mL. All assessments were performed in duplicate.

The subject of the next series is Daphnia magna Straus. The series is described as follows: Daphnia magna toxicity assay. The note with it: 48 h. Type of series: in vivo. As for the experimental part:
as §1

For series [2], the system named is LoVo colon adenocarcinoma cells. Kind of series: MTS cytotoxicity assay, LoVo. Type of series: cell-based, human. Particulars: Homo sapiens.
Series [3] shares this test system. The series is described as follows: MTS cytotoxicity assay, LoVo. Format: cell-based. The note with it: Homo sapiens, 400 μM, read-out: cell viability. Background: Formazan colour is commonly taken as a measure of viable cells.
In series [4] the test system is Triticum vulgare root tips. The series is described as follows: Microscopic examination of Triticum root tips (mitotic film changes). Type of series: in vivo. The note with it: 1000 μM, 24 h contact. The protocol:
Microscopic examination of Triticum vulgare root tips followed the mitotic film changes induced by the tested compounds. Observations were made after 24 h of contact of the caryopses with the test solutions. The study was made in comparison with DMSO control maintained under the same conditions as the samples. To obtain microscopic preparations, sectioning of wheat embryonic roots was carried out at about 5 mm from the tip and stained with dilute […] according to the La Cour procedure. The examination was conducted on a Euromex oxion series 110–240 V/50–60 Hz microscope with digital camera CEMEX 5 DC 5000 C and 40× and 100× lenses with cedar oil immersion (Sigma-Aldrich St. Louis, MO, USA).

Series [5] concerns SK-OV-3 ovary adenocarcinoma cells. The series is described as follows: MTS cytotoxicity assay, SK-OV-3. Type of series: cell-based. The note with it: Homo sapiens; SK-OV-3, 400 μM, 24 h; read-out: cell viability.

Entries after “also recorded” stand apart in the source; their conditions may differ. Where two headings read alike, the source gives them in different places.

In general, LC50 refers to the concentration lethal to half of the exposed cells or organisms. Higher therefore signals lower toxicity. One may read the IC50 as the point on the concentration scale where inhibition reaches its midpoint. What is called viability is a read-out of living cells in per cent, often relative to untreated cells. Turning to `CCOC(=O)c1cc(CC)n2nc(-c3ccc(F)cc3)ccc12` [Compound 5e, Ethyl 7-ethyl-2-(4-fluorophenyl)pyrrolo[1,2-b]pyridazine-5-carboxylate], in series [1], the median lethal concentration (LC50) at 48 h was found to be 675 µM. In addition, the “toxicity on Daphnia magna” value in the series with Daphnia magna Straus is “moderate toxicity”. The IC50 in series [2] (24 h, read-out: IC50 LoVo 24 h) was ≥ 400 µM; in series [2] (48 h, read-out: IC50 LoVo 48 h), ≥ 400 µM. The viability at 400 µM in series [3] (24 h) was 82.2%; in series [3] (48 h) it was 67.4%; in series [5], 87.5%. In addition, the “mitotic film / cell changes in root tips” value in series [4] is “undulated cell walls and modified shaped nuclei; also recorded: mitoinhibition”.

(Values after article PMC10380841, “Synthesis, Characterization and Cytotoxic Evaluation of New Pyrrolo[1,2-b]pyridazines Obtained via Mesoionic Oxazolo-Pyridazinones” (International Journal of Molecular Sciences, 2023).)
